Results from ChEMBL document CHEMBL1201862, “PubChem BioAssay data set” (2004).
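Protocol summary: plate cells (96-well), add compound at 5 concentrations, incubate 48 h, interpolate endpoints linearly. At the GI50, growth is halved.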 Active and inactive are the calls of the source. No stated cut-off is given here; in the data, active = GI50 up to about 1.1 µM and inactive = higher.

Experiments:
Experiment in all cases: NCI anticancer screen, dose series, 48 h
786-0 = tested on: 786-0
A549 = tested on: A549
ACHN = tested on: ACHN
CAKI-1 = tested on: CAKI-1
CCRF-CEM = tested on: CCRF-CEM
COLO 205 = tested on: COLO 205
DLD-1 = tested on: DLD-1
DMS-114 = tested on: DMS-114
DMS-273 = tested on: DMS-273
EKVX = tested on: EKVX
HCC 2998 = tested on: HCC 2998
HCT-116 = tested on: HCT-116
HCT-15 = tested on: HCT-15
HL-60 = tested on: HL-60
HOP-18 = tested on: HOP-18
HOP-62 = tested on: HOP-62
HOP-92 = tested on: HOP-92
HT-29 = tested on: HT-29
IGROV-1 = tested on: IGROV-1
K562 = tested on: K562
KM-20L2 = tested on: KM-20L2
KM12 = tested on: KM12
LOX IMVI = tested on: LOX IMVI
M14 = tested on: M14
M19-MEL = tested on: M19-MEL
MOLT-4 = tested on: MOLT-4
Malme-3M = tested on: Malme-3M
NCI-H226 = tested on: NCI-H226
NCI-H23 = tested on: NCI-H23
NCI-H460 = tested on: NCI-H460
NCI-H522 = tested on: NCI-H522
OVCAR-3 = tested on: OVCAR-3
OVCAR-4 = tested on: OVCAR-4
OVCAR-5 = tested on: OVCAR-5
OVCAR-8 = tested on: OVCAR-8
RPMI-8226 = tested on: RPMI-8226
RXF 393 = tested on: RXF 393
RXF 631 = tested on: RXF 631
SF-268 = tested on: SF-268
SF-295 = tested on: SF-295
SF-539 = tested on: SF-539
SK-MEL-28 = tested on: SK-MEL-28
SK-MEL-2 = tested on: SK-MEL-2
SK-MEL-5 = tested on: SK-MEL-5
SK-OV-3 = tested on: SK-OV-3
SN12C = tested on: SN12C
SNB-19 = tested on: SNB-19
SNB-75 = tested on: SNB-75
SNB-78 = tested on: SNB-78
SR = tested on: SR
SW-620 = tested on: SW-620
TK-10 = tested on: TK-10
U-251 = tested on: U-251
UACC-257 = tested on: UACC-257
UACC-62 = tested on: UACC-62
UO-31 = tested on: UO-31
XF498 = tested on: XF498

CCCCOP1(=O)C=C(C)C(=C(Cl)Cl)C(C)=C1 (configuration not stated)
GI50 (786-0): 12.5 µM (inactive) | GI50 (A549): 6.58 µM (inactive) | GI50 (ACHN): 6.43 µM (inactive) | GI50 (CAKI-1): 5.83 µM (inactive) | GI50 (CCRF-CEM): 4.2 µM (inactive) | GI50 (COLO 205): 5.25 µM (inactive) | GI50 (DLD-1): 16.2 µM (inactive) | GI50 (DMS-114): 3.48 µM (inactive) | GI50 (DMS-273): 3.63 µM (inactive) | GI50 (EKVX): 47.4 µM (inactive) | GI50 (HCC 2998): 22.3 µM (inactive) | GI50 (HCT-116): 2.3 µM (inactive) | GI50 (HCT-15): 11.5 µM | GI50 (HL-60): 2.4 µM (inactive) | GI50 (HOP-18): 22.7 µM (inactive) | GI50 (HOP-62): 13.9 µM (inactive) | GI50 (HOP-92): 1.5 µM (inactive) | GI50 (HT-29): 4.33 µM (inactive) | GI50 (IGROV-1): 14.8 µM (inactive) | GI50 (K562): 3.85 µM (inactive) | GI50 (KM-20L2): 2.31 µM (inactive) | GI50 (KM12): 2 µM (inactive) | GI50 (LOX IMVI): 5.21 µM (inactive) | GI50 (M14): 11.6 µM (inactive) | GI50 (M19-MEL): 11.5 µM (inactive) | GI50 (MOLT-4): 3.02 µM (inactive) | GI50 (Malme-3M): 14.1 µM (inactive) | GI50 (NCI-H226): 3.38 µM (inactive) | GI50 (NCI-H23): 12.4 µM (inactive) | GI50 (NCI-H460): 13 µM (inactive) | GI50 (NCI-H522): 5.45 µM (inactive) | GI50 (OVCAR-3): 17.9 µM (inactive) | GI50 (OVCAR-4): 23.8 µM (inactive) | GI50 (OVCAR-5): 45.1 µM (inactive) | GI50 (OVCAR-8): 17.9 µM (inactive) | GI50 (RPMI-8226): 2.74 µM (inactive) | GI50 (RXF 393): 8.51 µM (inactive) | GI50 (RXF 631): 16.9 µM (inactive) | GI50 (SF-268): 5.56 µM (inactive) | GI50 (SF-295): 6.61 µM (inactive) | GI50 (SF-539): 23.6 µM (inactive) | GI50 (SK-MEL-28): 8.17 µM (inactive) | GI50 (SK-MEL-2): 1.98 µM (inactive) | GI50 (SK-MEL-5): 3.84 µM (inactive) | GI50 (SK-OV-3): 19.5 µM (inactive) | GI50 (SN12C): 7.31 µM (inactive) | GI50 (SNB-19): 25.8 µM (inactive) | GI50 (SNB-75): 11.4 µM (inactive) | GI50 (SNB-78): 0.925 µM (active) | GI50 (SR): 3.2 µM (inactive) | GI50 (SW-620): 3.98 µM (inactive) | GI50 (TK-10): 11.2 µM (inactive) | GI50 (U-251): 6.97 µM (inactive) | GI50 (UACC-257): 5.43 µM (inactive) | GI50 (UACC-62): 7.01 µM (inactive) | GI50 (UO-31): 19.5 µM (inactive) | GI50 (XF498): 13.6 µM (inactive)
